Test results taken from US8846948B2, “Compounds” (Boehringer Ingelheim International GmbH, priority 2011, dated 2014).

Target: T1, human recombinant mGluR5 (Homo sapiens, UniProt P41594)
T1 construct: expressed in transfected cells; host or cells: HEK 293 cell line, cultured with tetracycline, hygromycin and geneticin
Test: Positive modulation of mGluR5, calcium based FLIPR assay
Conditions: EC50 of the modulation; HEK 293 cell line expressing human recombinant mGluR5; peak height of Ca release fluorescence signal after glutamate at approximately 5% basal stimulation
Procedure: The positive modulation of mGluR5 is measured in a HEK 293 cell line expressing human recombinant mGluR5 and is detected with calcium based FLIPR assay. The cells are cultured with DMEM supplemented with 10% FCS, 2 μg/mL tetracycline, 100 μg/mL hygromycin and 500 μg/mL gneticin. The cell culture media is exchanged for tetracycline-free cell culture media 3-7 days before the assay. One day before the assay the cell culture medium is exchanged to DMEM without glutamine and phenol red and supplemented with 10% FCS, 100 μg/mL hygromycin and 500 μg/mL geneticin. On the assay day, the medium of the subconfluent cultures is removed and the cells are detached by addition of 2.5 ml EDTA (0.02%) per 175 cm2 culture flask for 1 minute. The cells are resuspend in Ringer solution (140 mM NaCl, 5 mM KCl, 2.5 mM CaCl2, 1.5 mM MgCl2, 5 mM Glucose, 10 mM Hepes; adjusted to pH 7.4 with NaOH), pooled and Ringer solution added to adjust the volume to 50 mL. The cell suspension is centrifuged for […] at 1500 U/min (425 g). The supernatant is removed and the cells washed a second time with 50 ml fresh Ringer solution and centrifuged again as before. The supernatant is again removed and the pellet resuspended in Ringer solution to 1,000,000 cells/ml (1×10^6 cells/mL). The cells are plated onto BD BioCoat Poly-D-Lysine 384 well plates (20.000 cells/well; 20 μl/well). The lid covered plates are then incubated until use at 37° C./10% CO2. For dye loading, 20 μl of Calcium-4 assay kit solution (prepared according to the manufacturer's description in Ringer solution) are added to the cells and the plates are incubated for […] 37° C. and then […] at room temperature.
Controls, Compound dilution and assay execution:
Each assay plate contained wells with “high” and “low” controls:
Low controls 1% DMSO/ringer solution+basal glutamate activation (defined as 100% CTL).
High controls 10 μM CDPPB+basal glutamate activation (defined as 200% CTL).
Test compounds are dissolved and diluted in DMSO to 100-fold the desired concentrations. In a second step, the compounds are diluted in Ringer solution such that the compounds are 4-fold more concentrated than the desired final assay concentration. The final DMSO concentration was 1%.
20 μl of each compound solution are then transferred to the assay plate and the Ca2+ kinetic is measured to determine any intrinsic compound activity. After 5 mM incubation in the FLIPR device, the second stimulation with 20 μl of glutamate in Ringer solution (glutamate concentration adjusted to approximately 5% basal stimulation of the maximal possible glutamate effect) is added and the kinetic Ca2+ response of the wells was measured for the modulation effect.
The peak height of the Ca release related fluorescence signal (9-66) is used for the EC50. The EC50 of the modulation is calculated over a nonlinear regression with GraphPad Prism (Table 1).

T1 sequence (P41594 21-1212): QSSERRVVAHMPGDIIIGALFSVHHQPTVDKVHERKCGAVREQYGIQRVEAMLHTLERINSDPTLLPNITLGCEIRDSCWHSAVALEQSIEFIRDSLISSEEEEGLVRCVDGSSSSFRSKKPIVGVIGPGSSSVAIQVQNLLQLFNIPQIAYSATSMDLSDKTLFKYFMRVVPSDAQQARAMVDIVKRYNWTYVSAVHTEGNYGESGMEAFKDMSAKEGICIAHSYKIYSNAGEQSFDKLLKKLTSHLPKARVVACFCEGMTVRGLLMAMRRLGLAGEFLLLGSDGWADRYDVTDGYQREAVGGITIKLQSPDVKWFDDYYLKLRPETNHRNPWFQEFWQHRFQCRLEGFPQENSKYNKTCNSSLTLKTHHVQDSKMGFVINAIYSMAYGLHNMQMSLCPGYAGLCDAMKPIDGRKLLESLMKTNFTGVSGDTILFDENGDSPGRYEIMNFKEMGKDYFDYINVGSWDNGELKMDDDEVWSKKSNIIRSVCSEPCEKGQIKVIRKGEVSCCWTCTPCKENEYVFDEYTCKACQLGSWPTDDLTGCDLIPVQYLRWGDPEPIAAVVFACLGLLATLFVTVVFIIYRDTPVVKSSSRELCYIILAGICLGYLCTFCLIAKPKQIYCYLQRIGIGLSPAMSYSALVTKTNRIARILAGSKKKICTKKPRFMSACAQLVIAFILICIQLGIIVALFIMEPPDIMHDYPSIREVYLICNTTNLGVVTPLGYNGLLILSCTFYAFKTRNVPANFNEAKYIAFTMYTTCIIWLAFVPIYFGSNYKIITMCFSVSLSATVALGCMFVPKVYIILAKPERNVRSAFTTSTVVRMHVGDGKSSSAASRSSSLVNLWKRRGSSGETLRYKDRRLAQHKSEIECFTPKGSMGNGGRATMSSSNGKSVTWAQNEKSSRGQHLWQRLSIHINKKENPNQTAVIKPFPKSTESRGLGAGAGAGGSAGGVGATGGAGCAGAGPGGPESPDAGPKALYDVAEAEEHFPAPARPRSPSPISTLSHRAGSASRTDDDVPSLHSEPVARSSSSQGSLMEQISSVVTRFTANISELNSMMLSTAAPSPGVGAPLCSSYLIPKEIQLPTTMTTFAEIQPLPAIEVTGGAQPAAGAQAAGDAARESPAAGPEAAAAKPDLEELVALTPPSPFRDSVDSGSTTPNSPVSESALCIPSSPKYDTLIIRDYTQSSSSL

Row | EC50 | Compound
1 | 1290 nM | O=C(Cn1cc(-c2ccccc2)nc1-c1ccccc1)N1CCN(c2ncccn2)CC1 [Example 7.01.01., 2-(2,4-Diphenyl-imidazol-1-yl)-1-(4-pyrimidin-2-yl-piperazin-1-yl)-ethanone]
2 | 84 nM | COc1ccnc(N2CCN(C(=O)Cn3cc(-c4ccc(F)c(C)c4)nc3-c3ccccc3)CC2)c1 [Example 7.01.02.]
3 | 41 nM | Cc1cc(-c2cn(CC(=O)N3CCN(c4ncccn4)CC3)c(-c3ccccc3)n2)ccc1F [Example 7.01.03.]
4 | 363 nM | Cc1cc(-c2cn(CC(=O)N3CCN(c4cccnn4)CC3)c(-c3ccccc3)n2)ccc1F [Example 7.01.04.]
5 | 159 nM | COc1cc(N2CCN(C(=O)Cn3cc(-c4ccc(F)c(C)c4)nc3-c3ccccc3)CC2)ncn1 [Example 7.01.05.]
6 | 76 nM | Cc1cc(-c2cn(CC(=O)N3CCN(c4ccccn4)CC3)c(-c3ccccc3)n2)ccc1F [Example 7.01.06.]
7 | 53 nM | COc1cnc(N2CCN(C(=O)Cn3cc(-c4ccc(F)c(C)c4)nc3-c3ccccc3)CC2)nc1 [Example 7.01.07.]
8 | 97 nM | Cc1cc(-c2cn(CC(=O)N3CCN(c4ncc(F)cn4)CC3)c(-c3ccccc3)n2)ccc1F [Example 7.01.08.]
9 | 1320 nM | COc1cc(N2CCN(C(=O)Cn3cc(-c4ccc(F)c(C)c4)nc3C3CCCCC3)CC2)ncn1 [Example 7.01.09.]
10 | 737 nM | COc1ccnc(N2CCN(C(=O)Cn3cc(-c4ccc(F)c(C)c4)nc3C3CCCCC3)CC2)c1 [Example 7.01.10.]
11 | 710 nM | Cc1cc(-c2cn(CC(=O)N3CCN(c4ccccn4)CC3)c(C3CCCCC3)n2)ccc1F [Example 7.01.11.]
12 | 458 nM | Cc1cc(-c2cn(CC(=O)N3CCN(c4ncccn4)CC3)c(C3CCCCC3)n2)ccc1F [Example 7.01.12.]
13 | 857 nM | Cc1cc(-c2cn(CC(=O)N3CCN(c4ncnc5[nH]cnc45)CC3)c(C3CCCCC3)n2)ccc1F [Example 7.01.13.]
14 | 306 nM | COc1ccnc(N2CCN(C(=O)Cn3cc(-c4ccc(F)cc4)nc3-c3ccccc3)CC2)c1 [Example 7.01.14.]
15 | 858 nM | O=C(Cn1cc(-c2ccc(F)cc2)nc1-c1ccccc1)N1CCN(c2ncnc3[nH]cnc23)CC1 [Example 7.01.15.]
16 | 877 nM | COc1cc(N2CCN(C(=O)Cn3cc(-c4ccc(F)cc4)nc3-c3ccccc3)CC2)ncn1 [Example 7.01.16.]
17 | 542 nM | O=C(Cn1cc(-c2ccc(F)cc2)nc1-c1ccccc1)N1CCN(c2ccccn2)CC1 [Example 7.01.17.]
18 | 99 nM | COc1cc(N2CCN(C(=O)Cn3cc(-c4ccc(F)c(C)c4)nc3-c3ccc(F)cc3)CC2)ncn1 [Example 7.01.18.]
19 | 31 nM | Cc1cc(-c2cn(CC(=O)N3CCN(c4ncccn4)CC3)c(-c3ccc(F)cc3)n2)ccc1F [Example 7.01.19.]
20 | 73 nM | Cc1cc(-c2cn(CC(=O)N3CCN(c4ncnc5[nH]cnc45)CC3)c(-c3ccc(F)cc3)n2)ccc1F [Example 7.01.20.]
21 | 144 nM | Cc1cc(-c2cn(CC(=O)N3CCN(c4cccnn4)CC3)c(-c3ccc(F)cc3)n2)ccc1F [Example 7.01.22.]
22 | 75 nM | COc1ccnc(N2CCN(C(=O)Cn3cc(-c4ccc(F)c(C)c4)nc3-c3ccc(F)cc3)CC2)c1 [Example 7.01.23.]
23 | 147 nM | Cc1cc(-c2cn(CC(=O)N3CCN(c4ncncn4)CC3)c(-c3ccc(F)cc3)n2)ccc1F [Example 7.01.24.]
24 | 69 nM | COc1cnc(N2CCN(C(=O)Cn3cc(-c4ccc(F)c(C)c4)nc3-c3ccc(F)cc3)CC2)nc1 [Example 7.01.25.]
25 | 83 nM | Cc1cc(-c2cn(CC(=O)N3CCN(c4ncc(F)cn4)CC3)c(-c3ccc(F)cc3)n2)ccc1F [Example 7.01.26.]
26 | 238 nM | COc1cc(N2CCN(C(=O)Cn3cc(-c4ccc(F)cc4)nc3-c3ccc(F)cc3)CC2)ncn1 [Example 7.01.27.]
27 | 262 nM | O=C(Cn1cc(-c2ccc(F)cc2)nc1-c1ccc(F)cc1)N1CCN(c2ncnc3[nH]cnc23)CC1 [Example 7.01.28.]
28 | 889 nM | O=C(Cn1cc(-c2ccc(F)cc2)nc1-c1ccc(F)cc1)N1CCN(c2cccnn2)CC1 [Example 7.01.29.]

Row | EC50 | Compound
29 | 168 nM | COc1ccnc(N2CCN(C(=O)Cn3cc(-c4ccc(F)cc4)nc3-c3ccc(F)cc3)CC2)c1 [Example 7.01.30.]
30 | 244 nM | O=C(Cn1cc(-c2ccc(F)cc2)nc1-c1ccc(F)cc1)N1CCN(c2ccccn2)CC1 [Example 7.01.31.]
31 | 131 nM | Cc1cccc(-c2cn(CC(=O)N3CCN(c4ncnc5[nH]cnc45)CC3)c(-c3ccccc3)n2)c1 [Example 7.01.32.]
32 | 148 nM | COc1ccnc(N2CCN(C(=O)Cn3cc(-c4cccc(C)c4)nc3-c3ccccc3)CC2)c1 [Example 7.01.33.]
33 | 858 nM | Cc1cccc(-c2cn(CC(=O)N3CCN(c4cccnn4)CC3)c(-c3ccccc3)n2)c1 [Example 7.01.34.]
34 | 73 nM | Cc1cccc(-c2cn(CC(=O)N3CCN(c4ccccn4)CC3)c(-c3ccccc3)n2)c1 [Example 7.01.35.]
35 | 196 nM | COc1cc(N2CCN(C(=O)Cn3cc(-c4cccc(C)c4)nc3-c3ccccc3)CC2)ncn1 [Example 7.01.36.]
36 | 464 nM | COc1ccc(-c2cn(CC(=O)N3CCN(c4ccccn4)CC3)c(-c3ccccc3)n2)cc1 [Example 7.02.01., 2-[4-(4-Methoxy-phenyl)-2-phenyl-imidazol-1-yl]-1-(4-pyridin-2-yl-piperazin-1-yl)-ethanone]
37 | 1640 nM | Cc1ccc(-c2nc(-c3ccccc3)cn2CC(=O)N2CCN(c3ccccn3)CC2)cc1 [Example 7.02.02.]
38 | 272 nM | O=C(Cn1cc(-c2ccc(F)cc2)nc1-c1ccccc1)N1CCN(c2ncccn2)CC1 [Example 7.03.01., 2-[4-(4-Fluoro-phenyl)-2-phenyl-imidazol-1-yl]-1-(4-pyrimidin-2-yl-piperazin-1-yl)-ethanone]
39 | 67 nM | Cc1ccc(-c2cn(CC(=O)N3CCN(c4ncccn4)CC3)c(-c3ccccc3)n2)cc1 [Example 7.03.02.]
40 | 54 nM | Cc1cc(-c2cn(CC(=O)N3CCN(c4ncccn4)CC3)c(-c3ccccc3)n2)ccc1Cl [Example 7.03.03.]
41 | 395 nM | O=C(Cn1cc(-c2cccc(F)c2)nc1-c1ccccc1)N1CCN(c2ncccn2)CC1 [Example 7.03.04.]
42 | 87 nM | O=C(Cn1cc(-c2ccc(F)c(Cl)c2)nc1-c1ccccc1)N1CCN(c2ncccn2)CC1 [Example 7.03.05.]
43 | 680 nM | CCOc1ccc(-c2cn(CC(=O)N3CCN(c4ncccn4)CC3)c(-c3ccccc3)n2)cc1 [Example 7.03.06.]
44 | 38 nM | Cc1cc(-c2cn(CC(=O)N3CCN(c4ncccn4)CC3)c(-c3ccccc3)n2)cc(C)c1F [Example 7.03.07.]
45 | 151 nM | CCOc1cccc(-c2cn(CC(=O)N3CCN(c4ncccn4)CC3)c(-c3ccccc3)n2)c1 [Example 7.03.08.]
46 | 48 nM | Cc1ccc(-c2cn(CC(=O)N3CCN(c4ncccn4)CC3)c(-c3ccccc3)n2)cc1Cl [Example 7.03.09.]
47 | 159 nM | O=C(Cn1cc(-c2ccc(F)c(F)c2)nc1-c1ccccc1)N1CCN(c2ncccn2)CC1 [Example 7.03.10.]
48 | 914 nM | CN1CCOc2cc(-c3cn(CC(=O)N4CCN(c5ncccn5)CC4)c(-c4ccccc4)n3)ccc21 [Example 7.03.11.]
49 | 29 nM | COc1cc(-c2cn(CC(=O)N3CCN(c4ncccn4)CC3)c(-c3ccccc3)n2)ccc1C [Example 7.03.12.]
50 | 158 nM | O=C(Cn1cc(-c2cccc(Cl)c2)nc1-c1ccccc1)N1CCN(c2ncccn2)CC1 [Example 7.03.13.]
51 | 183 nM | O=C(Cn1cc(-c2cccc(C(F)(F)F)c2)nc1-c1ccccc1)N1CCN(c2ncccn2)CC1 [Example 7.03.14.]
52 | 61 nM | O=C(Cn1cc(-c2ccc3c(c2)CCCO3)nc1-c1ccccc1)N1CCN(c2ncccn2)CC1 [Example 7.03.15.]
53 | 1530 nM | Cn1cnc2ccc(-c3cn(CC(=O)N4CCN(c5ncccn5)CC4)c(-c4ccccc4)n3)cc21 [Example 7.03.16.]
54 | 40 nM | COc1cc(-c2cn(CC(=O)N3CCN(c4ncccn4)CC3)c(-c3ccccc3)n2)ccc1F [Example 7.03.17.]
55 | 74 nM | CCc1ccc(-c2cn(CC(=O)N3CCN(c4ncccn4)CC3)c(-c3ccccc3)n2)cc1 [Example 7.03.18.]
